Each compound was assayed against T1, human IL-17AA (Homo sapiens, UniProt Q16552) (assay: IL-8 release assay in human epithelial keratinocytes adult (HEKa)). Conditions: 3 ng/ml human IL-17AA + 10 ng/ml human TNFalpha, 68-72 h, IL-8 by HTRF, read-out: Rel EC50 L-8 release assay.
T1 construct: host or cells: HEK (human embryonic kidney) cells
T1 sequence (Q16552 24-155) 1: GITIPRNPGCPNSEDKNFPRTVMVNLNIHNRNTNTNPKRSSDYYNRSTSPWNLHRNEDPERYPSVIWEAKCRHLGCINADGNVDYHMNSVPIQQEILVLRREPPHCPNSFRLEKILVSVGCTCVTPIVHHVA
T1 sequence (Q16552 24-155) 2: T1 sequence (Q16552 24-155) 1
Type: cell-based
Method in brief: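 Adult human keratinocytes in Epilife with HKGS minus hydrocortisone, treated with compound then stimulated with final 3 ng/ml HEK-derived human IL-17AA plus 10 ng/ml TNF-alpha for 68–72 h at 37 °C; TNF-alpha alone defines 100% inhibition. Secreted IL-8 by HTRF; relative IC50 and Emax from four-parameter fits.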

Compound	EC50
Cc1n[nH]c(C)c1-c1ccc(NC(=O)[C@@H](NC(=O)c2ccnn2C)[C@@H]2CCc3ccc(-c4ccc(CN5CCOCC5)cc4)cc32)cc1 [Example 2, N-[(1S)-2-[4-(3,5-dimethyl-1H-pyrazol-4-yl)anilino]-1-[(1R)-6-[4-(morpholinomethyl)phenyl]indan-1-yl]-2-oxo-ethyl]-2-methyl-pyrazole-3-carboxamide]	< 100 nM
CCc1cccc(-c2ccc(Cl)c(CC(NC(=O)c3ccnn3C)C(=O)Nc3ccc(-c4nncn4C)cc3)c2)c1 (centres unmarked) [Example 108, N-[1-[[2-chloro-5-(3-ethylphenyl)phenyl]methyl]-2-[4-(4-methyl-1,2,4-triazol-3-yl)anilino]-2-oxo-ethyl]-2-methyl-pyrazole-3-carboxamide]	100 to 1000 nM
Cn1cncc1-c1ccc(NC(=O)C(Cc2cc(-c3ccnc(N4CC(N)C4)c3)ccc2Cl)NC(=O)c2ccnn2C)cc1 (centres unmarked) [Example 195, N-[1-[[5-[2-(3-aminoazetidin-1-yl)-4-pyridyl]-2-chloro-phenyl]methyl]-2-[4-(3-methylimidazol-4-yl)anilino]-2-oxo-ethyl]-2-methyl-pyrazole-3-carboxamide]	100 to 1000 nM
Cn1cncc1-c1ccc(NC(=O)C(Cc2cc(-c3ccnc(N4CCC4)c3)ccc2Cl)NC(=O)c2ccnn2C)cc1 (centres unmarked) [Example 149, N-[1-[[5-[2-(azetidin-1-yl)-4-pyridyl]-2-chloro-phenyl]methyl]-2-[4-(3-methylimidazol-4-yl)anilino]-2-oxo-ethyl]-2-methyl-pyrazole-3-carboxamide]	100 to 1000 nM
Cn1cnnc1-c1ccc(NC(=O)C(Cc2cc(-c3cccc(OC(F)F)c3)ccc2Cl)NC(=O)c2ccnn2C)cc1 (centres unmarked) [Example 112, N-[1-[[2-chloro-5-[3-(difluoromethoxy)phenyl]phenyl]methyl]-2-[4-(4-methyl-1,2,4-triazol-3-yl)anilino]-2-oxo-ethyl]-2-methyl-pyrazole-3-carboxamide]	100 to 1000 nM
Cn1cnnc1-c1ccc(NC(=O)C(Cc2cc(-c3cccc(C(C)(C)O)c3)ccc2Cl)NC(=O)c2ccnn2C)cc1 (centres unmarked) [Example 109, N-[1-[[2-chloro-5-[3-(1-hydroxy-1-methyl-ethyl)phenyl]phenyl]methyl]-2-[4-(4-methyl-1,2,4-triazol-3-yl)anilino]-2-oxo-ethyl]-2-methyl-pyrazole-3-carboxamide]	100 to 1000 nM
Cc1ncn(C)c1-c1ccc(NC(=O)[C@H](Cc2cc(-c3ccc(=O)n(C(C)C)c3)ccc2Cl)NC(=O)c2ccnn2C)cc1 [Example 143, N-[(1S)-1-[[2-chloro-5-(1-isopropyl-6-oxo-3-pyridyl)phenyl]methyl]-2-[4-(3,5-dimethylimidazol-4-yl)anilino]-2-oxo-ethyl]-2-methyl-pyrazole-3-carboxamide]	100 to 1000 nM
Cc1cnn(C)c1-c1ccc(NC(=O)[C@@H](NC(=O)C2(F)CC2)[C@@H](c2cccc(-c3cncc(N4C[C@@H]5C[C@H]4CO5)c3)c2)C2CC2)cc1 [Example 347, N-[(1S)-1-[(R)-cyclopropyl-[3-[5-[(1S,4S)-2-oxa-5-azabicyclo[2.2.1]heptan-5-yl]-3-pyridyl]phenyl]methyl]-2-[4-(2,4-dimethylpyrazol-3-yl)anilino]-2-oxo-ethyl]-1-fluoro-cyclopropanecarboxamide]	< 100 nM
Cc1cnn(C)c1-c1ccc(NC(=O)[C@@H](NC(=O)C2(F)CC2)[C@H](C)c2cccc(-c3cncc(N4C[C@@H]5C[C@H]4CO5)n3)c2)cc1 [Example 343, N-[(1S,2R)-1-[[4-(2,4-dimethylpyrazol-3-yl)phenyl]carbamoyl]-2-[3-[6-[(1S,4S)-2-oxa-5-azabicyclo[2.2.1]heptan-5-yl]pyrazin-2-yl]phenyl]propyl]-1-fluoro-cyclopropanecarboxamide]	100 to 1000 nM
Cc1n[nH]c(C)c1-c1ccc(NC(=O)[C@@H](NC(=O)C2(F)CC2)[C@@H]2CCc3ccc(-c4cc(C(C)C)ncn4)cc32)cc1 [Example 353, N-[(1S)-2-[4-(3,5-dimethyl-1H-pyrazol-4-yl)anilino]-1-[(1R)-6-(6-isopropylpyrimidin-4-yl)indan-1-yl]-2-oxo-ethyl]-1-fluoro-cyclopropanecarboxamide]	100 to 1000 nM
Cc1n[nH]c(C)c1-c1ccc(NC(=O)[C@@H](NC(=O)c2ccnn2C)[C@@H]2CCCc3ccc(-c4ccc(=O)n(C(C)C)c4)cc32)cc1O [Example 46, N-[(1S)-2-[4-(3,5-dimethyl-1H-pyrazol-4-yl)-3-hydroxy-anilino]-1-[(1R)-7-(1-isopropyl-6-oxo-3-pyridyl)tetralin-1-yl]-2-oxo-ethyl]-2-methyl-pyrazole-3-carboxamide]	< 100 nM
Cn1cncc1-c1ccc(NC(=O)C(Cc2cc(-c3ccnc(N4CCC[C@@H]4CO)c3)ccc2Cl)NC(=O)c2ccnn2C)cc1 (stereo partly drawn) [Example 189, N-[1-[[2-chloro-5-[2-[(2R)-2-(hydroxymethyl)pyrrolidin-1-yl]-4-pyridyl]phenyl]methyl]-2-[4-(3-methylimidazol-4-yl)anilino]-2-oxo-ethyl]-2-methyl-pyrazole-3-carboxamide]	100 to 1000 nM
Cc1cnn(C)c1-c1ccc(NC(=O)[C@@H](NC(=O)C2(F)CC2)[C@@H](c2cccc(-c3cc(N4C[C@@H]5C[C@H]4CO5)ncn3)c2)C2CC2)cc1 [Example 352, N-[(1S)-1-[(R)-cyclopropyl-[3-[6-[(1S,4S)-2-oxa-5-azabicyclo[2.2.1]heptan-5-yl]pyrimidin-4-yl]phenyl]methyl]-2-[4-(2,4-dimethylpyrazol-3-yl)anilino]-2-oxo-ethyl]-1-fluoro-cyclopropanecarboxamide]	100 to 1000 nM
Cc1n[nH]c(C)c1-c1ccc(NC(=O)[C@@H](NC(=O)C2(F)CC2)C(C)c2cc(-c3ccc(=O)n(C(C)C)c3)ccc2Cl)cc1 (stereo partly drawn) [Example 51, N-[(1S)-2-[2-chloro-5-(1-isopropyl-6-oxo-3-pyridyl)phenyl]-1-[[4-(3,5-dimethyl-1H-pyrazol-4-yl)phenyl]carbamoyl]propyl]-1-fluoro-cyclopropanecarboxamide]	100 to 1000 nM
Cc1nccn1-c1ccc(NC(=O)C(Cc2cc(-c3ccc(=O)n(C(C)C)c3)ccc2Cl)NC(=O)OC(C)(C)C)cc1 (centres unmarked) [Example 67, tert-butyl N-[1-[[2-chloro-5-(1-isopropyl-6-oxo-3-pyridyl)phenyl]methyl]-2-[4-(2-methylimidazol-1-yl)anilino]-2-oxo-ethyl]carbamate]	100 to 1000 nM
CCOc1cccc(-c2ccc(Cl)c(CC(NC(=O)c3ccnn3C)C(=O)Nc3ccc(-c4nncn4C)cc3)c2)c1 (centres unmarked) [Example 110, N-[1-[[2-chloro-5-(3-ethoxyphenyl)phenyl]methyl]-2-[4-(4-methyl-1,2,4-triazol-3-yl)anilino]-2-oxo-ethyl]-2-methyl-pyrazole-3-carboxamide]	100 to 1000 nM
Cc1nocc1-c1ccc(NC(=O)C(Cc2cc(-c3ccc(=O)n(C(C)C)c3)ccc2Cl)NC(=O)c2ccnn2C)cc1 (centres unmarked) [Example 78, N-[1-[[2-chloro-5-(1-isopropyl-6-oxo-3-pyridyl)phenyl]methyl]-2-[4-(3-methylisoxazol-4-yl)anilino]-2-oxo-ethyl]-2-methyl-pyrazole-3-carboxamide]	100 to 1000 nM
Cc1n[nH]c(C)c1-c1ccc(NC(=O)[C@@H](NC(=O)C2(F)CC2)[C@@H]2CCc3ccc(-c4ccnc(N5C[C@@H]6C[C@H]5CN6)c4)cc32)cc1 [Example 23, N-[(1S)-1-[(1R)-6-[2-[(1S,4S)-2,5-diazabicyclo[2.2.1]heptan-2-yl]-4-pyridyl]indan-1-yl]-2-[4-(3,5-dimethyl-1H-pyrazol-4-yl)anilino]-2-oxo-ethyl]-1-fluoro-cyclopropanecarboxamide]	< 100 nM
Cn1cncc1-c1ccc(NC(=O)C(Cc2cc(-c3ccnc(N4CC(O)C4)c3)ccc2Cl)NC(=O)c2ccnn2C)cc1 (centres unmarked) [Example 193, N-[1-[[2-chloro-5-[2-(3-hydroxyazetidin-1-yl)-4-pyridyl]phenyl]methyl]-2-[4-(3-methylimidazol-4-yl)anilino]-2-oxo-ethyl]-2-methyl-pyrazole-3-carboxamide]	100 to 1000 nM
CC(C)n1cc(-c2cccc(C(c3ccccc3)C(NC(=O)c3ccnn3C)C(=O)Nc3ccc(-c4cncn4C)cc3)c2)ccc1=O (single isomer, unassigned) [Example 230, N-[1-[[3-(1-isopropyl-6-oxo-3-pyridyl)phenyl]-phenyl-methyl]-2-[4-(3-methylimidazol-4-yl)anilino]-2-oxo-ethyl]-2-methyl-pyrazole-3-carboxamide]	100 to 1000 nM
Cc1nocc1C(=O)NC(Cc1cc(-c2ccc(=O)n(C(C)C)c2)ccc1Cl)C(=O)Nc1ccc(-c2cncn2C)c(Cl)c1 (centres unmarked) [Example 103, N-[1-[[2-chloro-5-(1-isopropyl-6-oxo-3-pyridyl)phenyl]methyl]-2-[3-chloro-4-(3-methylimidazol-4-yl)anilino]-2-oxo-ethyl]-3-methyl-isoxazole-4-carboxamide]	< 100 nM
Cc1n[nH]c(C)c1-c1ccc(NC(=O)[C@@H](NC(=O)C2(F)CC2)[C@@H]2CCc3ccc(-c4cnn(C(C)(C)CO)c4)cc32)cc1 [Example 12, N-[(1S)-2-[4-(3,5-dimethyl-1H-pyrazol-4-yl)anilino]-1-[(1R)-6-[1-(2-hydroxy-1,1-dimethyl-ethyl)pyrazol-4-yl]indan-1-yl]-2-oxo-ethyl]-1-fluoro-cyclopropanecarboxamide]	< 100 nM
Cc1n[nH]c(C)c1-c1ccc(NC(=O)[C@@H](NC(=O)c2ccnn2C)[C@@H]2CCCc3ccc(-c4cnn(C(C)(C)C)c4)cc32)cc1 [Example 34, N-[(1S)-1-[(1R)-7-(1-tert-butylpyrazol-4-yl)tetralin-1-yl]-2-[4-(3,5-dimethyl-1H-pyrazol-4-yl)anilino]-2-oxo-ethyl]-2-methyl-pyrazole-3-carboxamide]	< 100 nM
